Measurements from US9789146B1, “Synthesis of adansonia digitata nanoparticles” (KING SAUD UNIVERSITY, priority 2017, dated 2017).

How the values were obtained:
Assay in all cases: Antimicrobial activity, diffusion agar technique
Format in all cases: cell-based
Details in all cases: well diameter 6.0 mm, 100 μl tested
[1] = test system: Aspergillus fumigatus (RCMB 02567)
Procedure: (§1) The antimicrobial effect of the Adansonia digitata nanoparticles was evaluated against different gram positive and gram negative bacteria as well as fungi. The test was done using the diffusion agar technique and the well diameter was 6.0 mm (100 μl was tested). The mean zone of inhibition in mm±Standard deviation beyond well diameter (6 mm) produced on a range of environmental and clinically pathogenic microorganisms.

[2] = test system: Streptococcus pneumoniae (RCMB 010011)
Procedure: as §1

[3] = test system: Bacillis subtilis (RCMB 010068)
Procedure: as §1

[4] = test system: Escherichia coli (RCMB 010054)
Procedure: as §1

C[C@@H]1[C@H](O)[C@@H](C)/C=C/C=C/C=C/C=C/C=C/C=C/C=C/[C@H](O[C@@H]2O[C@H](C)[C@@H](O)[C@H](N)[C@@H]2O)C[C@@H]2O[C@](O)(C[C@@H](O)C[C@@H](O)[C@H](O)CC[C@@H](O)C[C@@H](O)CC(=O)O[C@H]1C)C[C@H](O)[C@H]2C(=O)O [Amphotericin B]
mean zone of inhibition ± Standard deviation beyond well diameter [1]: 21.7 ± 1.5 mm

CC1(C)S[C@@H]2[C@H](NC(=O)[C@H](N)c3ccccc3)C(=O)N2[C@H]1C(=O)O [Ampicillin]
mean zone of inhibition ± Standard deviation beyond well diameter [2]: 21.0 ± 1.0 mm | mean zone of inhibition ± Standard deviation beyond well diameter [3]: 31.3 ± 1.5 mm

Gentamicin
mean zone of inhibition ± Standard deviation beyond well diameter [4]: 20.3 ± 0.58 mm
